pIC50: −log10 of the molar value.
How the values were obtained:
hTERT RPE-1 = test: Proliferation assay (IncuCyte live-cell imaging, cell confluency); type: cell-based; conditions: Homo sapiens, hTERT-RPE1, indicative, from AUC vs concentration (2-100 μM), read-out: Antiproliferative effect (IC50)
Experimental: (§1) Cell lines SH-SY5Y (ACC 209), DU145 (ACC 261), LNCaP (ACC 256) and NIH-3T3 (ACC 59) were purchased from DSMZ (Germany). MDA-MB-435S (HTB 129) and hTERT RPE-1 (CRL 4000) were obtained from ATCC (USA). Cell lines were cultured in their recommended media Supplemented with 10% or 15% FCS (PAA laboratories, Germany) at 37°C in humidified 5% CO2 atmosphere. All media were purchased from ThermoFisher Scientific (Waltham, Massachusetts, United States).
(§2) Cell proliferation, cytotoxicity and apoptosis were assessed in a 96-well microtiter plate by live-cell imaging using an IncuCyte Zoom System (Essen BioScience, UK). Cell proliferation was monitored in terms of cell confluency (%). Cell cytotoxicity was assessed by the CellTox Green Dye assay (Promega, Madison, Wisconsin, USA). The Incucyte Caspase-3/7 apoptosis assay (Essen BioScience, UK) was used to evaluate the effect of compound 5 on the apoptotic pathway. As negative controls media supplemented with 0.05% of DMSO were used.
(§3) Live-cell imaging data were collected from the IncuCyte Zoom software and analyzed using GraphPad Prism 5 software. Proliferation was measured as Phase Object Confluence (%), cytotoxicity and apoptosis were measured as Green Object Count (1/mm^2). All data are represented as mean S.E.M of n = 6 different wells.
(§4) The following concentrations of compound 5 were added to the different cell lines, 100 μM, 50 μM, 20 μM, 10 μM, 5 μM and 2 μM to assess its effect on cell proliferation (S1 Fig) and cytotoxicity (S2 Fig). Indicative IC50-values for the proliferation assays were obtained by plotting the areas under the curve (AUC × 10^3) against the tested compound 5 concentrations and by fitting the curve with a logistic dose-response equation. The EC50-values for the cytotoxicity assays were calculated correspondingly (S3 Fig). Although more data points would be necessary to calculate precise IC50 and EC50-values, it is clear that compound 5 inhibits the proliferation and induces cytotoxicity in all the tested cell lines in the low to middle micromolar range.

NIH-3T3 = test: as above; type: cell-based; conditions: Mus musculus, NIH3T3, indicative, from AUC vs concentration (2-100 μM), read-out: Antiproliferative effect (IC50)
Experimental: as §1, §2, §3, §4

SH-SY5Y = test: as above; type: cell-based; conditions: Homo sapiens, indicative, from AUC vs concentration (2-100 μM), read-out: Antiproliferative effect (IC50)
Experimental: as §1, §2, §3, §4

DU145 = test: as above; type: cell-based; conditions: Homo sapiens, DU-145, indicative, from AUC vs concentration (2-100 μM), read-out: Antiproliferative effect (IC50)
Experimental: as §1, §2, §3, §4

LNCAP = test: as above; type: cell-based; conditions: Homo sapiens, indicative, from AUC vs concentration (2-100 μM), read-out: Antiproliferative effect (IC50)
Experimental: as §1, §2, §3, §4

MDA-MB-435S = test: as above; type: cell-based; conditions: Homo sapiens, indicative, from AUC vs concentration (2-100 μM), read-out: Antiproliferative effect (IC50)
Experimental: as §1, §2, §3, §4

COc1ccc(C(=O)NCCc2cc(Br)c(OCCCN(C)C)c(Br)c2)cc1Cl [Compound 5, 3-Chloro-N-[3,5-dibromo-4-[3-(dimethylamino)propoxy]phenethyl]-4-methoxybenzamide]
melting point: 79 to 81 °C | pIC50 (hTERT RPE-1): 4.90 | pIC50 (NIH-3T3): 5.15 | pIC50 (SH-SY5Y): 4.91 | pIC50 (DU145): 4.54 | pIC50 (LNCAP): 4.58 | pIC50 (MDA-MB-435S): 4.55

Reference: publication PMC5722316, “Synthesis of novel purpurealidin analogs and evaluation of their effect on the cancer-relevant potassium channel KV10.1” (PLoS ONE, 2017)
